This note sets out measurements from patent US20230240302A1, “Antimicrobial silver coordination complexes” (Penta Science Industries Holding B.V., priority 2020, published 2023).

One series can be described thus: Solubility. It counts as physicochemical.
Series [1] in a line: Photochemical and thermal stability. It counts as physicochemical.

For `O=S(=O)([O-])CCC[S-].O=S(=O)([O-])CCC[S-].[Ag+].[Na+].[Na+].[Na+]` [Na^+3[Ag^+(MPS^2−)2]^3−], the “solubility in aqueous solution” value in “Solubility” is recorded as “very high solubility”. For the compound `O=C([O-])c1ccccc1[S-].O=C([O-])c1ccccc1[S-].[Ag+].[Na+].[Na+].[Na+]` [Na^+3[Ag^+(TS^2−)2]^3−], the “solubility in aqueous solution” value in “Solubility” is listed as “very high solubility”. In series [1], the “photochemical and thermal stability” value was “thermally and photochemically stable”. Turning to `O=S(=O)([O-])c1ccc2[nH]c([S-])nc2c1.O=S(=O)([O-])c1ccc2[nH]c([S-])nc2c1.[Ag+].[Na+].[Na+].[Na+]` [Na^+3[Ag^+(X^2−)2]^3−], the “solubility in aqueous solution” value in the series “Solubility” was “very high solubility”. For the same compound, the “photochemical and thermal stability” value in series [1] was “thermally and photochemically stable”.
